Test results: ChEMBL document CHEMBL1201862, “PubChem BioAssay data set” (2004)
Values belong to the compound of their own block, whether it stands above or below them. The source made the active and inactive calls.

Key:
[1] = target: T1, Zinc finger protein mex-5 (Caenorhabditis elegans, UniProt Q9XUB2); assay: MEX-5/TCR-2 RNA interaction inhibitors, dose response, biochemical, C. elegans, fluorescence polarization (AID 1960)
T1 sequence (Q9XUB2 whole entry): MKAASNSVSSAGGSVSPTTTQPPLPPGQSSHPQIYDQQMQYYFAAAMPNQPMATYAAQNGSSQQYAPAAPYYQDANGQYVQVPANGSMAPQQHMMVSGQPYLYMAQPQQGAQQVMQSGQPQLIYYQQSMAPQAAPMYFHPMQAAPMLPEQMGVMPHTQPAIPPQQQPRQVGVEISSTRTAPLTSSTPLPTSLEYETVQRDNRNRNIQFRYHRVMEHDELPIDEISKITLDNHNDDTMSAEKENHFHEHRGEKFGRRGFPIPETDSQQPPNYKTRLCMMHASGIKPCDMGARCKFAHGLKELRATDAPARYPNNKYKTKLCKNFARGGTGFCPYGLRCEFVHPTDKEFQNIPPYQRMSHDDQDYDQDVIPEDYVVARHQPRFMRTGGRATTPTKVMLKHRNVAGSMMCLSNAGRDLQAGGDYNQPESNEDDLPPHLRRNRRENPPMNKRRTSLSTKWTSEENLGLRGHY

Phospholipase A2 = Phospholipase A2 (Homo sapiens, UniProt P04054); assay type: functional;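 also: confirmatory dose-response counterscreen on phospholipase A2, testing hits that came from an ultra-high-throughput screen for ATG4B inhibitors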
Phospholipase A2, sequence (P04054 whole entry): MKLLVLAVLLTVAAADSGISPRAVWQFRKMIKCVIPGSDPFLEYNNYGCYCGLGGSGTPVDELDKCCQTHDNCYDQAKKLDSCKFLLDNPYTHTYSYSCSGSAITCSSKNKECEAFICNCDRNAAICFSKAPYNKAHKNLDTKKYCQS

[2] = target: T2, Calpain-2 catalytic subunit (Sus scrofa, UniProt P43367); assay: pig calpain II inhibitor potency, dose response, biochemical, fluorogenic peptide substrate (AID 1420); assay type: functional
T2 sequence (P43367 whole entry): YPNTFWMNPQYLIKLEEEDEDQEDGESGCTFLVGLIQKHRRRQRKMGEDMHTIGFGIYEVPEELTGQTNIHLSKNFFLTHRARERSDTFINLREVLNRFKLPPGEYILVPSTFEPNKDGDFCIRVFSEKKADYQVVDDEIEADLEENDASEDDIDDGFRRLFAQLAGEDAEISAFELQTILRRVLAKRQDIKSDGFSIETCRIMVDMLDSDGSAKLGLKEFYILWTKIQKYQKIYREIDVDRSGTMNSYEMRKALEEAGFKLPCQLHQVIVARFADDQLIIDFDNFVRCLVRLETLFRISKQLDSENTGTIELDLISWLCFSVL

[3] = target: T3, Histone-lysine N-methyltransferase NSD2 (Homo sapiens, UniProt O96028); assay type: biochemical
T3 sequence (O96028 whole entry): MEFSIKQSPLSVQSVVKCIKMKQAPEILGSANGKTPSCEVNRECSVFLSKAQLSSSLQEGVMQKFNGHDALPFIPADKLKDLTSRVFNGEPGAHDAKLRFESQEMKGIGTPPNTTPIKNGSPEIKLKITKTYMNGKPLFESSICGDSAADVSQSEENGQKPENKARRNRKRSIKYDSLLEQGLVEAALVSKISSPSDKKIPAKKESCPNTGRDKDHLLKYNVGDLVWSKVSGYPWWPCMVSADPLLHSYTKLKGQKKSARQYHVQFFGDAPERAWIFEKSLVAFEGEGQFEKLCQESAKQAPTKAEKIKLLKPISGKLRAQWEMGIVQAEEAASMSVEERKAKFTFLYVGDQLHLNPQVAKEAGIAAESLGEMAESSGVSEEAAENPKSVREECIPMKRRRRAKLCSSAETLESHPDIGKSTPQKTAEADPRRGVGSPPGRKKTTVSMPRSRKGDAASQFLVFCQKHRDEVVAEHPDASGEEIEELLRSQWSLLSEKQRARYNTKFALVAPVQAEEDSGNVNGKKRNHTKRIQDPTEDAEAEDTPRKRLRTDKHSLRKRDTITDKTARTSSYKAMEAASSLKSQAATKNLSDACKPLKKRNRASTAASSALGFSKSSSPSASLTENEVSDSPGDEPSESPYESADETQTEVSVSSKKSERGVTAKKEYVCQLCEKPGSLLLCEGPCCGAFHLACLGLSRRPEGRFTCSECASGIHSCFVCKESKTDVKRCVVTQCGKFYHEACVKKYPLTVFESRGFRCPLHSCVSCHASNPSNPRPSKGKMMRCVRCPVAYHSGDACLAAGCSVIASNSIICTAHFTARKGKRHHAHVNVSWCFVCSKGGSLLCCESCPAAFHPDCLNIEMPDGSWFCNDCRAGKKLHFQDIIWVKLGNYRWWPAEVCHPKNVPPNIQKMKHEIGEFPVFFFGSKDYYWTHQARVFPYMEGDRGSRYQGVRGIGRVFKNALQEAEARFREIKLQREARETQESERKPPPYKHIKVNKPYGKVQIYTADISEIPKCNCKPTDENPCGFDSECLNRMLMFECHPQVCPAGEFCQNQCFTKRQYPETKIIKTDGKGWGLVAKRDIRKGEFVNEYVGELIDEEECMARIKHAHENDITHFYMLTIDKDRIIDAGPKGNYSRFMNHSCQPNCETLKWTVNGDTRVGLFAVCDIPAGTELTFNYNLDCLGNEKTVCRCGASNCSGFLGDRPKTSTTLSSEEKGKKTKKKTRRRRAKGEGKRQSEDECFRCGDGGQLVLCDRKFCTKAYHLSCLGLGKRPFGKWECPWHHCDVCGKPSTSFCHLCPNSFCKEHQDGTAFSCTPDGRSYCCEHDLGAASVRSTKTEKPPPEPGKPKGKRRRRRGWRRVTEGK

[4] = target: T4, RNA-binding protein pos-1 (Caenorhabditis elegans, UniProt G5EF15); assay: inhibitors of POS-1/mex-3 RNA binding, dose response, biochemical, fluorescence polarization (AID 1964);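 also: purified POS-1 fused to maltose binding protein made in E. coli; potency of compounds blocking POS-1 binding to fluorescent RNA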
T4 sequence (G5EF15 whole entry): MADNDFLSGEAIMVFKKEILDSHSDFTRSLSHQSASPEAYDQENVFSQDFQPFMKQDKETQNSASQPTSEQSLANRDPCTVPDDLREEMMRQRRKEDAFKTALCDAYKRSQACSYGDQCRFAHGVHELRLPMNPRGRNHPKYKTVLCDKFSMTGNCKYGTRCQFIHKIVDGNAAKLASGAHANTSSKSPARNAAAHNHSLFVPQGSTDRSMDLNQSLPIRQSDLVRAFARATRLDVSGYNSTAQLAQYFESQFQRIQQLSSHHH

Cysteine protease ATG4B = target: T5, Cysteine protease ATG4B (Homo sapiens, UniProt Q9Y4P1); assay type: functional;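 also: Fluorescence-based dose-response confirmation assay measuring inhibition of ATG4B activity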
T5 sequence (Q9Y4P1 whole entry): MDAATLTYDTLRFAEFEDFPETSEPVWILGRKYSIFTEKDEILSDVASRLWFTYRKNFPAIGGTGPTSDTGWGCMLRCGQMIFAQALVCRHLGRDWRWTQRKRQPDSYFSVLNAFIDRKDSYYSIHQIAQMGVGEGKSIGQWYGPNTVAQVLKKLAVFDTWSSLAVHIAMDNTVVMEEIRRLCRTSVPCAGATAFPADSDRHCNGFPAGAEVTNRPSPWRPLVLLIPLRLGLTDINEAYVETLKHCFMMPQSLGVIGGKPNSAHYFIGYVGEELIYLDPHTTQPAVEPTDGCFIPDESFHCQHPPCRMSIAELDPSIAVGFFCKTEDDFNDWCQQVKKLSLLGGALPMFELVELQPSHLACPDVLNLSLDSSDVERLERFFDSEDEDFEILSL

[5] = target: Dual specificity protein phosphatase 3 (Homo sapiens, UniProt P51452); assay: VHR phosphatase inhibition, dose response, selectivity assay for STEP inhibitor project, biochemical (AID 602374); assay type: functional; details: read-out: IC50_Mean
Dual specificity protein phosphatase 3, sequence (P51452 whole entry): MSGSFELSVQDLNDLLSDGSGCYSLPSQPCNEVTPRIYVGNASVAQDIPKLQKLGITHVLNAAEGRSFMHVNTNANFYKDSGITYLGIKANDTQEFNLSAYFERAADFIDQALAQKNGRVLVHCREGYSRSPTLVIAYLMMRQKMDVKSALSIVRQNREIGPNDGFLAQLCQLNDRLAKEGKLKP

[6] = target: T6, Tyrosine-protein phosphatase non-receptor type 11 (Homo sapiens, UniProt Q06124); assay: SHP2 phosphatase inhibition, dose response, selectivity assay for STEP inhibitor project, biochemical (AID 602367); assay type: functional; details: read-out: IC50_Mean
T6 sequence (Q06124 whole entry): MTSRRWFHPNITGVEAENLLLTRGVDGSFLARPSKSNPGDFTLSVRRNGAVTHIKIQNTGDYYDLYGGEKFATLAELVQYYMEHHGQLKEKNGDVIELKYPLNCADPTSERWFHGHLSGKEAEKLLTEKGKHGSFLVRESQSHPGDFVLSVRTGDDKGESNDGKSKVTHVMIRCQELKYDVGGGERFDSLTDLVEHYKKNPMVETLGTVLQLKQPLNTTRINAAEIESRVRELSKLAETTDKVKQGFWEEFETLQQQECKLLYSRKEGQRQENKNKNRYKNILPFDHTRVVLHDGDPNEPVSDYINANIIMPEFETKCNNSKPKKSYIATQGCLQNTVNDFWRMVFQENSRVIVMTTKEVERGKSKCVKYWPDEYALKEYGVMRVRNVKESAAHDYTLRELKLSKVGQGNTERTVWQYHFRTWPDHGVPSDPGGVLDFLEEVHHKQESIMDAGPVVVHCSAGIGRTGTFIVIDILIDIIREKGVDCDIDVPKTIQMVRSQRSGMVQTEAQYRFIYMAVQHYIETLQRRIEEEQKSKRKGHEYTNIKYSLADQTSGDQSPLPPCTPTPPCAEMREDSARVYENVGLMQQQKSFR

[7] = target: T7, Tyrosine-protein phosphatase non-receptor type 5 (Homo sapiens, UniProt P54829); assay: STEP phosphatase inhibitors, confirmation, biochemical, fluorescence intensity, uHTS hits (AID 602372); assay type: functional; details: read-out: IC50_Mean
T7 sequence (P54829 whole entry): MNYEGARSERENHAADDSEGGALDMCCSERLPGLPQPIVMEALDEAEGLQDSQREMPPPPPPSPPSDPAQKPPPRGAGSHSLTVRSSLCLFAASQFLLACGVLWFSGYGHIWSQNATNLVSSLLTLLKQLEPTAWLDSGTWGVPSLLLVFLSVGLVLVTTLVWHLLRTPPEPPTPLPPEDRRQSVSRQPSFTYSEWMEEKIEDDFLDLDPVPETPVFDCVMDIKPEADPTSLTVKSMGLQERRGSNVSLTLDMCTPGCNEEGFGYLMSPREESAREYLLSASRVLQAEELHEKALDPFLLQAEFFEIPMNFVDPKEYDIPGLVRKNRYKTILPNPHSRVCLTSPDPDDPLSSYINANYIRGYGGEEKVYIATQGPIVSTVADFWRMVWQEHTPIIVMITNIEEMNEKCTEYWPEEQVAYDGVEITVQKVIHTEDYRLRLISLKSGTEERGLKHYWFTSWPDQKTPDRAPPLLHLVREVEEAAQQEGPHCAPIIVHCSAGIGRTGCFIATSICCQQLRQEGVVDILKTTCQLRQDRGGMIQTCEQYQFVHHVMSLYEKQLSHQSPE

Melanocortin receptor 4 = Melanocortin receptor 4 (Homo sapiens, UniProt P32245); assay type: functional, cell-based;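 also: Cell-based assay with luminescence read-out, confirmatory dose-response testing for agonist activity of biased ligands at MC4R; human U2OS cells with tagged receptor and beta-arrestin; potency of agonists that increase receptor coupling to beta-arrestin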
Melanocortin receptor 4, sequence (P32245 whole entry): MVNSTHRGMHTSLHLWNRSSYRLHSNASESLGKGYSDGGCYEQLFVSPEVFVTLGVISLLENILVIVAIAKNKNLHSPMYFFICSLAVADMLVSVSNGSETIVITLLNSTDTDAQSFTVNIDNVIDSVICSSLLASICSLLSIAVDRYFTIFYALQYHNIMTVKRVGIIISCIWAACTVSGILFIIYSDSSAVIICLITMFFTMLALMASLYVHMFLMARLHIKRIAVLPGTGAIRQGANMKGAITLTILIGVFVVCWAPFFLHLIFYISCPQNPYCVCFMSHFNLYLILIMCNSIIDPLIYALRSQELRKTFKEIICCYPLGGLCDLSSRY

[8] = target: FAD-linked sulfhydryl oxidase ALR (Homo sapiens, UniProt P55789); assay: inhibitors of human ALR sulfhydryl oxidase, dose response, biochemical, H2O2 detection, luminescence, cherry-pick (AID 493248)
FAD-linked sulfhydryl oxidase ALR, sequence (P55789 whole entry, the tested form may be a part): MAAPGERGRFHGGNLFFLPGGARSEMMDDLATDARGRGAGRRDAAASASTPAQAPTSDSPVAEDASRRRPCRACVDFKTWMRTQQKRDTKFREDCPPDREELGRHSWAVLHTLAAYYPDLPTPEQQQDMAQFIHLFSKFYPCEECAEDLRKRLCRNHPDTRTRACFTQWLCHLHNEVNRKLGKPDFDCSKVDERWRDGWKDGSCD

[9] = target: T8, Sentrin-specific protease 1 (Homo sapiens, UniProt Q9P0U3); assay: Dose response confirmation of small molecule inhibitors of the catalytic domain of the SUMO protease, SENP1 in a FRET assay.; assay type: functional; details: read-out: IC50_Mean
T8 sequence (Q9P0U3 whole entry): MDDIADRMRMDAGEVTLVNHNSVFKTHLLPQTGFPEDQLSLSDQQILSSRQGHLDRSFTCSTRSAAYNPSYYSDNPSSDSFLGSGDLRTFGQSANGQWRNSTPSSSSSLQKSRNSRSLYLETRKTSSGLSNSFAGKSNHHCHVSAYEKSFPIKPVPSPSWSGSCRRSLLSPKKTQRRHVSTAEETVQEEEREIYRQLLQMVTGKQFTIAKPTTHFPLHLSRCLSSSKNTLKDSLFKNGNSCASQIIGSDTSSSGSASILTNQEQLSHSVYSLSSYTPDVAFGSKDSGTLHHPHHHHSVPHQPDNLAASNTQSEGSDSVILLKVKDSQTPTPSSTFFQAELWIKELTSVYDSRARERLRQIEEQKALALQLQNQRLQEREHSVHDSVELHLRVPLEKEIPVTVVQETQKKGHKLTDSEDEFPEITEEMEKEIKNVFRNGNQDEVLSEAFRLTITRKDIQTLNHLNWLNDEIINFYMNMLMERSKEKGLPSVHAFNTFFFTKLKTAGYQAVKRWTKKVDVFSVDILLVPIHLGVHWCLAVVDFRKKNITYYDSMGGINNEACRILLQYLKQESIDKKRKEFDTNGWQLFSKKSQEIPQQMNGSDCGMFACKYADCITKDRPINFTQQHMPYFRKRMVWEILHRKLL

[10] = target: Glucose-6-phosphate 1-dehydrogenase (Homo sapiens, UniProt P11413); assay: human G6PD enzyme inhibitors, dose response, selectivity assay for P. falciparum G6PD inhibitor project, biochemical, fluorescence (AID 504792); assay type: functional
Glucose-6-phosphate 1-dehydrogenase, sequence (P11413 whole entry): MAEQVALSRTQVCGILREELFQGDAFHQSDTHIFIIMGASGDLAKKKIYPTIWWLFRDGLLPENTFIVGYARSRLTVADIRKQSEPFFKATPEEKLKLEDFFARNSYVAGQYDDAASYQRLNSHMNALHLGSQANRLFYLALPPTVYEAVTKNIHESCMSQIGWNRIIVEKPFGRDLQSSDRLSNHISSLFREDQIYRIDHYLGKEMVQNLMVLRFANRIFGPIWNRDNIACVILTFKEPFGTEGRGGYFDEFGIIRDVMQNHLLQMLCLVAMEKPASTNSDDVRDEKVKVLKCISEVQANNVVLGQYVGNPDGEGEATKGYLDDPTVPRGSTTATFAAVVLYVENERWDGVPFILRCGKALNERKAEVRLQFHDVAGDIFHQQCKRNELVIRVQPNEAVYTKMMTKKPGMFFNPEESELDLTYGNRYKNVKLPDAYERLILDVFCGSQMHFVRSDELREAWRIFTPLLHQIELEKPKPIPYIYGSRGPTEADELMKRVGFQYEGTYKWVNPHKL

[11] = target: T9, Low molecular weight phosphotyrosine protein phosphatase (Homo sapiens, UniProt P24666); assay type: functional; details: read-out: IC50_Mean;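 also: Dose-response confirmation assay measuring inhibition of LMPTP enzyme activity by fluorescence intensity read-out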
T9 sequence (P24666 whole entry): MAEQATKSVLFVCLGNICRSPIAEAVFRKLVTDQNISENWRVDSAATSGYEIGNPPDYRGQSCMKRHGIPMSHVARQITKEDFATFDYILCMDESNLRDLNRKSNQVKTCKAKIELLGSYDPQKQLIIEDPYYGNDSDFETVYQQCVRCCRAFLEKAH

P388/ADR = assay: cells; assay type: functional; details: Mus musculus

Structure (SMILES): Cc1ccccc1NC1=NC(=O)/C(=C/c2cccn2-c2cccc(C(=O)O)c2)S1
EC50 [1]: 70 µM (active)
IC50 (Phospholipase A2): 8.6 µM (active)
IC50 [2]: 1.09 µM (not active)
AC50 [3]: > 20 µM (inactive)
EC50 [4]: > 300 µM (not active)
IC50 (Cysteine protease ATG4B): 10.2 µM (active)

IC50 [5]: 3.08 µM (active)
IC50 [6]: 11.8 µM (active)
IC50 [7]: 36.1 µM (inactive)
Structure (SMILES): O=C(NCCCn1ccnc1)C(Cc1ccccc1)N1C(=O)c2ccccc2C1=O (stereo unspecified)

EC50 (Melanocortin receptor 4): > 89.2 µM (inactive)
Structure (SMILES): Cc1ccc(C(=O)NCCNc2nc3cc(C)c(C)cc3cc2C)cc1

EC50 (Melanocortin receptor 4): > 89.2 µM (inactive)
Structure (SMILES): O=C(CCN1C(=O)/C(=C/C=C/c2ccccc2)SC1=S)Nc1ccccn1

AC50 [8]: 0.509 µM (active)
IC50 [9]: 37.8 µM (inactive)
Structure (SMILES): Nc1cc([N+](=O)[O-])ccc1Nc1ccccc1

EC50 (Melanocortin receptor 4): > 89.2 µM (inactive)
Structure (SMILES): COc1ccc2c(c1)CCc1c(C(=O)Nc3ccn(Cc4ccc(C)cc4)n3)noc1-2

Structure (SMILES): Cn1c(=O)[nH]c(=O)c2c1nc(SCCN1CCCCC1)n2CCCc1ccccc1
IC50 [5]: 0.57 µM (active)
IC50 [6]: 0.599 µM (active)
IC50 [10]: > 80 µM (inactive)
IC50 [7]: 34.9 µM (inactive)

IC50 [11]: 38.2 µM (inactive)
Structure (SMILES): CSc1sc(-c2nnc(S)n2C)c2c1C=CCC2

IC50 [9]: 14.1 µM (active)
Structure (SMILES): COCCNC(=O)c1cccc2c1C(=O)c1ccc(N3CCOCC3)cc1S2(=O)=O

Structure (SMILES): COc1cccc2c1C(=O)c1c(O)c3c(c(O)c1C2=O)C[C@@](O)(C(C)=O)C[C@@H]3OC1CC(O)C(O)C(C)O1 (stereo partly specified)
GI50 (P388/ADR): 0.293 µM (active)
